From ChEMBL document CHEMBL4052811, “Design, synthesis and antiproliferative activity of novel substituted 2-amino-7,8-dihydropteridin-6(5H)-one derivatives” (Bioorg Med Chem Lett, 2017) come the findings set out here.

The test system of assay [1] is BT-549. Briefly: Cytotoxicity against human BT549 cells after 48 hrs by MTT assay. The class given is functional, cell-based. The note with it: BT-549, 48 h. For orientation: Tetrazolium assays rely on reduction of a dye to a coloured formazan, in cell work by metabolically active cells.
The test system of assay [2] is T47D. Briefly: Cytotoxicity against human T47D cells after 48 hrs by MTT assay. The class given is functional, cell-based.
Assay [3] concerns MDA-MB-468. Briefly: Cytotoxicity against human MDA-MB-468 cells after 48 hrs by MTT assay. The class given is functional, cell-based. The note with it: MDA-MB-468, 48 h.
The subject of another assay is MDA-MB-231. Briefly: Cytotoxicity against human MDA-MB-231 cells after 48 hrs by MTT assay. The class given is functional, cell-based. The note with it: MDA-MB-231, 48 h.
Assay [4] deals with MDA-MB-468. Briefly: Potency index, ratio of fluorouracil IC50 to compound IC50 for human MDA-MB-468 cells. The class given is functional.
In assay [5] the test system is T47D. Briefly: Potency index, ratio of fluorouracil IC50 to compound IC50 for human T47D cells. The class given is functional.
Assay [6] has as its system BT-549. Briefly: Potency index, ratio of fluorouracil IC50 to compound IC50 for human BT549 cells. The class given is functional.
In assay [7] the test system is T47D. Briefly: Cell cycle arrest in human T47D cells assessed as accumulation at G0/G1 phase at 3 uM after 12 to 48 hrs by FACS analysis (reference value: 59.67%). The class given is functional. Background: A flow cytometer gives signals particle by particle.
Assay [8] deals with T47D. Briefly: Cell cycle arrest in human T47D cells assessed as accumulation at S phase at 3 uM after 12 to 48 hrs by FACS analysis (reference value: 21.82%). The class given is functional.
The test system of assay [9] is T47D. Briefly: Cell cycle arrest in human T47D cells assessed as accumulation at G2/M phase at 3 uM after 12 to 48 hrs by FACS analysis (reference value: 18.51%). The class given is functional.
The subject of assay [10] is T47D. Briefly: Cell cycle arrest in human T47D cells assessed as accumulation at G0/G1 phase at 6 uM after 12 to 48 hrs by FACS analysis (reference value: 59.67%). The class given is functional.
Assay [11] has as its system T47D. Briefly: Cell cycle arrest in human T47D cells assessed as accumulation at S phase at 6 uM after 12 to 48 hrs by FACS analysis (reference value: 21.82%). The class given is functional.
Assay [12] has as its system T47D. Briefly: Cell cycle arrest in human T47D cells assessed as accumulation at G2/M phase at 6 uM after 12 to 48 hrs by FACS analysis (reference value: 18.51%). The class given is functional.
Assay [13] has as its system T47D. Briefly: Cell cycle arrest in human T47D cells assessed as accumulation at G0/G1 phase at 12 uM after 12 to 48 hrs by FACS analysis (reference value: 59.67%). The class given is functional.
Assay [14] relates to T47D. Briefly: Cell cycle arrest in human T47D cells assessed as accumulation at S phase at 12 uM after 12 to 48 hrs by FACS analysis (reference value: 21.82%). The class given is functional.
The test system of assay [15] is T47D. Briefly: Cell cycle arrest in human T47D cells assessed as accumulation at G2/M phase at 12 uM after 12 to 48 hrs by FACS analysis (reference value: 18.51%). The class given is functional.
Assay [16] concerns T47D. Briefly: Cell cycle arrest in human T47D cells assessed as accumulation at G1 phase after 12 to 48 hrs by FACS analysis. The class given is functional, cell-based.

A value given as a limit tells only on which side of the number the result lay.

One may read the IC50 as the concentration at which inhibition is half-maximal. A high value points to lower potency. Turning to `O=C1CN(Cc2ccccc2)c2nc(Nc3ccc(Cl)cc3)ncc2N1`, the IC50 with BT-549 [1], in the assay on T47D [2], with MDA-MB-468 [3] and with MDA-MB-231 was over 100 µM each time.

As to `O=c1[nH]cc(F)c(=O)[nH]1` [FLUOROURACIL], the IC50 in the assay on BT-549 [1] stood at 98.2 µM; in the assay on T47D [2] it was 171 µM; in the assay on MDA-MB-468 [3], 95.7 µM; in the assay on MDA-MB-231, 53.5 µM.

As for `CN1CC(=O)Nc2cnc(NCc3ccccc3)nc21`, the 50% inhibitory concentration (IC50) was 78.8 µM with BT-549 [1], 89.7 µM with T47D [2], 94.4 µM in the assay on MDA-MB-468 [3] and 92 µM in the assay with MDA-MB-231.

For `CN1CC(=O)Nc2cnc(Nc3ccccc3)nc21`, the IC50 in the assay with BT-549 [1], in the assay with T47D [2], in the assay on MDA-MB-468 [3] and with MDA-MB-231 was over 100 µM each time.

On to `CN1CC(=O)Nc2cnc(Nc3ccc(Cl)cc3)nc21`, for which the IC50 in the assay with BT-549 [1] was 91 µM; with T47D [2], 36 µM; in the assay with MDA-MB-468 [3] it was 31.3 µM; in the assay with MDA-MB-231, over 100 µM.

In the case of `O=C1CNc2nc(Nc3ccc(Cl)cc3)ncc2N1`, the IC50 in the assay on BT-549 [1] amounted to 17.7 µM; in the assay with T47D [2], 29.3 µM; with MDA-MB-468 [3], 15 µM; in the assay on MDA-MB-231, 41.6 µM.

Take `COc1cc(Nc2ncc3c(n2)N(Cc2ccccc2)CC(=O)N3)cc(OC)c1OC`: the half-inhibitory concentration (IC50) in the assay on BT-549 [1] was 12.8 µM; in the assay on T47D [2], 8.76 µM; in the assay on MDA-MB-468 [3], over 100 µM; with MDA-MB-231 it was 10.6 µM.

On to `O=C1CN(Cc2ccccc2)c2nc(NCCc3ccccc3)ncc2N1`, for which the half-inhibitory concentration (IC50) in the assay with BT-549 [1] amounted to 10.7 µM; in the assay on T47D [2], 6.37 µM; with MDA-MB-468 [3], 7.75 µM; in the assay on MDA-MB-231 it was 22.4 µM. Further, the figures for the “Ratio IC50” value in the assay on MDA-MB-468 [4], in the assay with T47D [5] and in the assay with BT-549 [6] were 49, 11 and 8, respectively. For the same compound, the Activity is 61.25% in the assay with T47D [7]; 18.98% with T47D [8]; 19.76% with T47D [9]; 72.7% with T47D [10]; 10.8% with T47D [11]; 16.5% in the assay on T47D [12]. Besides, the Activity with T47D [13] is 74.68%; with T47D [14], 4.34%; in the assay on T47D [15] it was 20.98%; in the assay with T47D [16] it was “Dose-dependent effect”.

For the compound `O=C1CNc2nc(Nc3ccccc3)ncc2N1`, the IC50 in the assay with BT-549 [1] is over 100 µM; in the assay with T47D [2], 85.4 µM; in the assay on MDA-MB-468 [3], over 100 µM; with MDA-MB-231 it was over 100 µM.

For the compound `CN1CCN(Nc2ncc3c(n2)N(Cc2ccccc2)CC(=O)N3)CC1`, the half-maximal inhibitory concentration (IC50) with BT-549 [1] was 98.3 µM; with T47D [2], 79 µM; in the assay on MDA-MB-468 [3] it was over 100 µM; in the assay with MDA-MB-231, 98.3 µM.

On to `COc1cccc(Nc2ncc3c(n2)NCC(=O)N3)c1`, for which the IC50 in the assay with BT-549 [1] is over 100 µM; with T47D [2], over 100 µM; in the assay with MDA-MB-468 [3], over 100 µM; in the assay with MDA-MB-231 it was 93.2 µM.

On to `COc1ccc(Nc2ncc3c(n2)NCC(=O)N3)cc1`, for which the half-maximal inhibitory concentration (IC50) with BT-549 [1] was 95 µM; with T47D [2], 89.2 µM; with MDA-MB-468 [3], over 100 µM; in the assay on MDA-MB-231 it was over 100 µM.

With `COc1cccc(CNc2ncc3c(n2)N(Cc2ccccc2)CC(=O)N3)c1`, the IC50 in the assay with BT-549 [1] worked out at 15.6 µM; in the assay with T47D [2] it was 15.3 µM; with MDA-MB-468 [3], 23.2 µM; with MDA-MB-231 it was 47 µM.

For `CS(=O)(=O)N1CCC(Nc2ncc3c(n2)N(Cc2ccccc2)CC(=O)N3)CC1`, the IC50 in the assay with BT-549 [1] is over 100 µM; in the assay with T47D [2] it was over 100 µM; in the assay on MDA-MB-468 [3], 97.4 µM; with MDA-MB-231 it was over 100 µM.

Turning to `COc1cccc(Nc2ncc3c(n2)N(C)CC(=O)N3)c1`, the IC50 in the assay with BT-549 [1], with T47D [2], in the assay on MDA-MB-468 [3] and in the assay with MDA-MB-231 was over 100 µM throughout.

Turning to `O=C1CN(Cc2ccccc2)c2nc(Nc3ccccc3)ncc2N1`, the half-inhibitory concentration (IC50) in the assay on BT-549 [1] was 11.9 µM; in the assay with T47D [2] it was 15.2 µM; with MDA-MB-468 [3], 20.6 µM; in the assay on MDA-MB-231 it was 37 µM.

Turning to `CN1CC(=O)Nc2cnc(NCCc3ccccc3)nc21`, the 50% inhibitory concentration (IC50) stood at 41.2 µM in the assay on BT-549 [1], 23.2 µM with T47D [2], 56.2 µM with MDA-MB-468 [3] and 34.2 µM with MDA-MB-231.

For `COc1cccc(Nc2ncc3c(n2)N(Cc2ccccc2)CC(=O)N3)c1`, the half-maximal inhibitory concentration (IC50) with BT-549 [1] was found to be 81.1 µM; in the assay on T47D [2], 78.7 µM; in the assay on MDA-MB-468 [3], 40.4 µM; with MDA-MB-231 it was 99.9 µM.

`CCOC(=O)CN(Cc1ccccc1)c1nc(NCCc2ccccc2)ncc1[N+](=O)[O-]`: the concentration for half-maximal inhibition (IC50) in the assay with BT-549 [1] came to 13.7 µM; in the assay on T47D [2] it was 6.59 µM; in the assay with MDA-MB-468 [3], 6.26 µM; in the assay with MDA-MB-231 it was 24.2 µM.

Turning to `O=C1CNc2nc(Nc3ccc(F)cc3)ncc2N1`, the IC50 is 92.4 µM in the assay with BT-549 [1], over 100 µM with T47D [2], over 100 µM in the assay with MDA-MB-468 [3] and over 100 µM with MDA-MB-231.

`CCOC(=O)CNc1ncc2c(n1)N(Cc1ccccc1)CC(=O)N2`: the concentration for half-maximal inhibition (IC50) in the assay with BT-549 [1], in the assay with T47D [2], with MDA-MB-468 [3] and in the assay with MDA-MB-231 was over 100 µM in each case.

Take `COc1cc(Nc2ncc3c(n2)N(C)CC(=O)N3)cc(OC)c1OC`: the concentration for half-maximal inhibition (IC50) amounted to 45.2 µM in the assay on BT-549 [1], 56.2 µM in the assay with T47D [2], 66.1 µM in the assay on MDA-MB-468 [3] and 46.2 µM in the assay with MDA-MB-231.
